The test system of one assay is human active caspase-3. As to the kind of experiment: Active caspase-3 level (ELISA) in OVCAR-4 cells. The conditions noted are these: OVCAR-4 cells treated at IC50 for 24 h. Format: cell-based. The protocol: The level of human active caspase-3 protein was evaluated using Invitrogen (Catalog KHO1091) ELISA kit. The manufacturer’s instructions were followed in the following procedures. Add 100 μL of the standard diluent buffer to the zero standard wells. Add 100 μL of standards and controls or diluted samples to the appropriate microtitre wells. Cover wells with and incubate for 2 h at room temperature. Thoroughly aspirate or decant solution from wells and discard the liquid. Pipette 100 μL of caspase-3 (active) detection antibody solution into each well. Cover plate and incubate for 1 h at room temperature. Add 100 μL Anti-Rabbit IgG HRP working solution to each well. Cover wells with the plate cover and incubate for 30 min at room temperature. Add 100 μL of stabilised chromogen to each well. The liquid in the wells will begin to turn blue. Incubate for 30 min at room temperature. Stop solution has been added to each well. The solution in the wells should change from blue to yellow. Read the plate within 2 h after adding the stop solution. Use a curve fitting software to generate the standard curve.
EGFR and ErbB2 tyrosine kinase inhibitors are well known to potentiate the intrinsic apoptotic pathway via increase in caspase-3 enzyme activity[34]^,[35].

A further assay concerns ACHN. As to the kind of experiment: MTT cell viability assay. Format: cell-based, human. The protocol: (§1) Cell Line cells were obtained from American Type Culture Collection, cells were cultured using Dulbecco's Modified Eagle's medium (DMEM) (Invitrogen/Life Technologies) supplemented with 10% foetal bovine serum (FBS) (Hyclone), 10 μg/mL of insulin (Sigma), and 1% penicillin-streptomycin. All of the other chemicals and reagents were from Sigma, or Invitrogen. Plate cells (cells density 1.2 – 1.8 × 10,000 cells/well) in a volume of 100 µL complete growth medium and 100 μL of the tested compound per well in a 96-well plate for 24 h before the MTT assay.
(§2) Remove culture medium to a centrifuge tube. […] Add 2.0 to 3.0 ml of Trypsin EDTA solution to flask and observe cells under an inverted microscope until cell layer is dispersed. Add 6 to 8 ml of complete growth medium and aspirate cells by gently pipetting. Transfer the cell suspension to the centrifuge tube with the medium and centrifuge for 5 to 10 min. Discard the supernatant. Resuspend the cell pellet in fresh growth medium. Add appropriate aliquots of the cell suspension to new culture vessels. Incubate cultures at 37 °C for 24 h. After treatment of cells with the serial concentrations of the compound to be tested incubation is carried out for 48 h at 37 °C, then the plates are to be examined under the inverted microscope and proceed for the MTT assay.
(§3) The 3–(4, 5-dimethylthiazol-2-yl)-2,5-diphenyltetrazolium bromide (MTT) method[30] of monitoring in vitro cytotoxicity is well suited for use with multiwell plates. The assessment of cell population growth is based on the capability of living cells to reduce the yellow product MTT to a blue product, formazan, by a reduction reaction occurring in the mitochondria. The five cell lines were incubated for 24 h in 96-microwell plates. The number of living cells in the presence or absence (control) of the various test compounds is directly proportional to the intensity of the blue colour, measured by spectrophotometry using (ROBONIK P2000 Spectrophotometer) at a wavelength of 570 nm. Measure the background absorbance of multiwell plates at 690 nm and subtract from the 570 nm measurement. Five concentrations ranging from 0.01 μM to 100 μM (with semi-log decrease in concentration) were tested for each of the compounds under study. Each experiment was carried out in triplicate. The IC50 values [the concentration required for 50% inhibition of cell viability] were calculated using sigmoidal dose response curve-fitting models.

The test system of the next assay is OVCAR-4. Kind of assay: MTT cell viability assay. The format is cell-based, human. The protocol:
as §1, §2, §3

Another assay deals with NCI-H460. Kind of assay: MTT cell viability assay. Format: cell-based, human. On the procedure:
as §1, §2, §3

For a further assay, the target named is T1, ErbB2 (Homo sapiens, UniProt P04626).
T1 construct: purchased
T1 sequence (P04626 23-1255): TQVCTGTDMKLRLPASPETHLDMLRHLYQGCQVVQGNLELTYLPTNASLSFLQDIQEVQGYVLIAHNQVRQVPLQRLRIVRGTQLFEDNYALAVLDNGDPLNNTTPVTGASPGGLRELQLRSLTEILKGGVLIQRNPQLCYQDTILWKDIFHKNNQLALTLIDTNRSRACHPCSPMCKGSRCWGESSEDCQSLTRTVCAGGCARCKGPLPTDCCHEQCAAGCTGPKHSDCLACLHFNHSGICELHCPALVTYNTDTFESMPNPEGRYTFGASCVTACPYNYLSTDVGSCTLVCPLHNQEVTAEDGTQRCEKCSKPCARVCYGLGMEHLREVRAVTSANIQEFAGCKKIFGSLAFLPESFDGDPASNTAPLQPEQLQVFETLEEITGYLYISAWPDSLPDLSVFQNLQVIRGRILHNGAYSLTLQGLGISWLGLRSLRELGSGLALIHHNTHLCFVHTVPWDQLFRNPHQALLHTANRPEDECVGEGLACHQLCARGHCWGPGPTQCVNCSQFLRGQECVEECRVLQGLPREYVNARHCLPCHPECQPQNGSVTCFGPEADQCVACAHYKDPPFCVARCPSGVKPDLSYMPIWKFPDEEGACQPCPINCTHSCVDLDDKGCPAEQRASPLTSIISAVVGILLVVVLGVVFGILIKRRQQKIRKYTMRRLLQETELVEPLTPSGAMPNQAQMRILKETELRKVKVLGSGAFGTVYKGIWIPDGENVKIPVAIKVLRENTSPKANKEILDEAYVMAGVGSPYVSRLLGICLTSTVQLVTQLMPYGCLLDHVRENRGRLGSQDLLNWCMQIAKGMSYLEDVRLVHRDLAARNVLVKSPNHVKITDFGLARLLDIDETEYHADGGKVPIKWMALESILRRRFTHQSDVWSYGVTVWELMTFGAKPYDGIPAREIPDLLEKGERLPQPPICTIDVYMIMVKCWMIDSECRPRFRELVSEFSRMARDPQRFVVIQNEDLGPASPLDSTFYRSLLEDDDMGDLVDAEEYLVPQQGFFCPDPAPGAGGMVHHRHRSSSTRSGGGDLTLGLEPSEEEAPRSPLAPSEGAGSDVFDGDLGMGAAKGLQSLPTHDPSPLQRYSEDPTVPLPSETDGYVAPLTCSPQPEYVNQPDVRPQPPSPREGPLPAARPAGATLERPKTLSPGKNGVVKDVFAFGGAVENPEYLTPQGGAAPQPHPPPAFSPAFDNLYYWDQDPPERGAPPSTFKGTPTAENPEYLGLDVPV
As to the kind of experiment: ErbB2 kinase inhibition (HTScan HER2/ErbB2 Kinase Assay Kit). Format: biochemical. The conditions noted are these: mean ± SD of three experiments; read-out: IC50 for inhibitory activity against ErbB2 enzyme.

The test system of assay [1] is OVCAR-4 cells. As to the kind of experiment: Cell cycle analysis by flow cytometry (PI). The format is cell-based, human. The protocol:
After treatment, the cells were washed twice with ice-cold PBS, collected by centrifugation, and fixed in ice-cold 70% (v/v) ethanol, washed with PBS, re-suspended with 0.1 mg/mL RNase, stained with […] propidium iodide (PI), and analysed by flow cytometry using FACS Calibur (Becton Dickinson)[31]. The cell cycle distributions were calculated using Cell-Quest software (Becton Dickinson).

Assay [2] concerns OVCAR-4 cells. Kind of assay: Annexin V-FITC/PI apoptosis assay. The format is cell-based, human. On the procedure: Annexin V fluorescein isothiocyanate (FITC)/PI apoptosis detection kit (BD Biosciences) was used according to the manufacturer’s instructions to measure the apoptotic activity of compound 7d. OVCAR-4 cells were incubated with Annexin V-FITC. […] The cells then were collected by trypsinisation and 0.5 × 10^6 cells were washed twice with PBS and stained with 5 μL Annexin V-FITC and 5 μL PI in 1 × binding buffer for 15 min at room temperature in the dark. Analyses were performed using FACS Calibur flow cytometer (BD Biosciences, San Jose, CA).
The apoptotic activity of compound 7d was further studied using Annexin V-FITC assay, which includes dual staining using Annexin V, a Ca^2+-dependent protein, and Propidium iodide (PI). Annexin V binds to phosphatidylserine (PS) expressed only on the surface of the apoptotic cells and fluoresces green after interacting with the fluorochrome labelled annexin-V. On the other hand, PI stains DNA and enters only dead cells. This assay can give a differential analysis to the percentages of living, early apoptotic, late apoptotic and necrotic cells. […] Moreover, a significant increase in the percentage of Annexin-V positive cells (almost 9 folds more than control) occurred indicating an early apoptosis (lower right quadrant). In addition, an increase by 7 folds more than control in the percentage of PI positive cells (upper left quadrant) indicating necrotic cells. Some treated cells were in a late apoptotic stage (upper right quadrant), this was indicated by the significant increase in the percentage of Annexin V positive, PI positive cells (16 folds more than control).

The mark [3] stands for this setting: OVCAR-4, 7d at IC50 (1.74 μM), 24 h.

Molecules are shown by their SMILES. “And” between values parts separate entries of the source, which are not always exact repeats. Identical values can stand only once.

Procedure for ErbB2: In brief, add 10 μL of 10 mM ATP to 1.25 ml of 6 μM substrate peptide. Dilute the mixture with dH20 to 2.5 ml. Transfer enzyme from −80 °C to ice. Allow enzyme to thaw on ice. Micro-centrifuge briefly at 4 °C. Return immediately to ice. […] Transfer 1.2 ml of DTT/Kinase buffer to each enzyme. […] Add 25 μL of ATP/substrate cocktail to 25 μL/well pre-incubated reaction cocktail/compound. Incubate reaction plate at room temperature for 30 min. Add 50 μL/well stop buffer to stop the reaction. Transfer 25 μL of each reaction and 75 μL dH2O/well to a 96-well streptavidin coated, plate and incubate at room temperature for 60 min. Wash three times with 200 μL/well phosphate-buffered saline (PBS). […] Add 100 μL/well primary antibody. Incubate at room temperature for 60 min and wash three times. Prepare appropriate dilution of horseradish peroxidase (HRP) labelled secondary antibody in PBS with 1% BSA. Add 100 μL/well secondary antibody solution. Incubate at room temperature for 30 min and wash five times. Add 100 μL/well 3,3′,5,5′-tetramethylbenzidine (TMB) substrate. Incubate at room temperature for 15 min. Add 100 μL/well of stop solution. Mix well and read the absorbance at 450 nm with a microtitre plate reader.

Consider `Cc1nn(-c2ccc(F)cc2)c2ncnc(Nc3ccc(F)c(Cl)c3)c12` [Compound 7d, N-(3-Chloro-4-fluorophenyl)-1–(4-fluorophenyl)-3-methyl-1H-pyrazolo[3,4-d] pyrimidin-4-amine], for which, in the assay on human active caspase-3, the “Increase in the level of active caspase-3 compared to control” value is 10.8 fold and 11 fold. For the same compound, the Caspase3 conc. with human active caspase-3 (mean ± SD of three experiments) is 568.50 ± 14.0 pg/mL. For the same compound, in the assay on ACHN (ACHN, from IC50 values), the “Potency relative to Erlotinib (fold more potent)” value was found to be 2.2 fold. The IC50 in the assay on ACHN (Homo sapiens, ACHN renal cancer, MTT, 48 h, mean ± SD of three experiments, read-out: IC50 (concentration required for 50% inhibition of cell viability)) came to 5530 ± 310 nM. In addition, in the assay on OVCAR-4 (Homo sapiens, OVCAR-4 ovarian cancer, MTT, 48 h, mean ± SD of three experiments, read-out: IC50 (concentration required for 50% inhibition of cell viability)), the IC50 was found to be 1740 ± 60 nM. Besides, the “Potency relative to Erlotinib (fold more potent)” value in the assay on OVCAR-4 (OVCAR-4, from IC50 values) is listed as 1.6 fold. Besides, in the assay with NCI-H460 (Homo sapiens, NCI-H460 lung cancer, MTT, 48 h, mean ± SD of three experiments, read-out: IC50 (concentration required for 50% inhibition of cell viability)), the IC50 was 4440 ± 260 nM. Further, the “Potency relative to Erlotinib (fold more potent)” value in the assay with NCI-H460 (NCI-H460, from IC50 values) turned out to be 1.9 fold. Moreover, the IC50 on ErbB2 was 250 nM and 254 nM. In the assay with OVCAR-4 cells [1] (setting [3]), the “Cell cycle distribution %Apoptosis (pre-G1)” value was determined as 21.71%, the “Cell cycle distribution %G0/G1” value was 29.77%, the “Cell cycle distribution %G2/M” value was determined as 36.44% and the “Cell cycle distribution %S” value came to 33.79%. In addition, in the assay on OVCAR-4 cells [1] (OVCAR-4, at IC50, 24 h), the “Increase in cells accumulated in pre-G1 phase compared to control” value is about 11 folds and the “Increase in percentage of cells at G2/M phases compared to control” value is reported as 5 folds. Moreover, the “%Apoptosis Early” value in the assay on OVCAR-4 cells [2] (OVCAR-4, 7d at IC50 (1.74 μM), 24 h, lower right quadrant) is reported as 7.52%. Moreover, the “%Necrosis” value with OVCAR-4 cells [2] (OVCAR-4, 7d at IC50 (1.74 μM), 24 h, upper left quadrant) came to 2.88%. Moreover, the “%Apoptosis Late” value in the assay on OVCAR-4 cells [2] (OVCAR-4, 7d at IC50 (1.74 μM), 24 h, upper right quadrant) is 11.31%. In addition, in the assay on OVCAR-4 cells [2] (OVCAR-4, at IC50, 24 h), the “Increase in percentage of Annexin V positive, PI positive cells (late apoptosis) versus control” value turned out to be 16 folds; the “Increase in percentage of Annexin-V positive cells (early apoptosis) versus control” value is given as about 9 folds; the “Increase in percentage of PI positive cells (necrotic cells) versus control” value is recorded as 7 folds.

The values are drawn from publication PMC6352943, “Novel pyrazolo[3,4-d]pyrimidines: design, synthesis, anticancer activity, dual EGFR/ErbB2 receptor tyrosine kinases inhibitory activity, effects on cell cycle profile and caspase-3-mediated apoptosis” (Journal of Enzyme Inhibition and Medicinal Chemistry, 2019).
